Laboratory results as given in ChEMBL document CHEMBL1145204, “Carbonic anhydrase inhibitors: synthesis and inhibition of cytosolic/membrane-associated carbonic anhydrase isozymes I, II, and IX with sulfonamides incorporating hydrazino moieties” (J Med Chem, 2005).

These compounds were tested against Carbonic anhydrase 1 (Homo sapiens, UniProt P00915).
Sequence of Carbonic anhydrase 1 (P00915 whole entry): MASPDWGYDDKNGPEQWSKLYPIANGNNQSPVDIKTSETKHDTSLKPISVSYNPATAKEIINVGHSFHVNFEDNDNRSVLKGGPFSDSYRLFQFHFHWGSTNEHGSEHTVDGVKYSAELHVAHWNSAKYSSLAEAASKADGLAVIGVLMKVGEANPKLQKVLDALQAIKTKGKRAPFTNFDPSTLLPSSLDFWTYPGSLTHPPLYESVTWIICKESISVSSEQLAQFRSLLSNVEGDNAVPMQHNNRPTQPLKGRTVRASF
Description: Inhibitory activity against Carbonic anhydrase I

| SMILES | Ki |
| --- | --- |
| NNc1ccc(S(N)(=O)=O)cc1 | 3.9 µM |

Each compound was assayed against Carbonic anhydrase 9 (Homo sapiens, UniProt Q16790).
Description: Inhibitory activity against Carbonic anhydrase IX

| SMILES | Ki |
| --- | --- |
| COC(=O)c1ccccc1S(N)(=O)=O | 0.68 µM |
| NS(=O)(=O)c1ccccc1C(=O)NNC(=O)NS(=O)(=O)c1ccc(F)cc1 | 0.064 µM |
| Cc1ccccc1S(=O)(=O)NC(=O)NNC(=O)c1ccc(S(N)(=O)=O)cc1 | 0.032 µM |
| Cc1ccc(S(=O)(=O)NC(=O)NNC(=O)c2ccccc2S(N)(=O)=O)cc1 | 0.07 µM |
| Cc1ccc(S(=O)(=O)NC(=O)NNC(=O)c2ccc(S(N)(=O)=O)cc2)cc1 | 0.0058 µM |
| NS(=O)(=O)c1ccc(C(=O)NNC(=O)Nc2ccc(C34CC5CC(CC(C5)C3)C4)cc2)cc1 | 0.024 µM |
| NNc1ccc(S(N)(=O)=O)cc1F | 0.136 µM |
| NNc1ccc(S(N)(=O)=O)cc1Cl | 0.149 µM |
| NS(=O)(=O)c1ccc(C(=O)NNC(=O)Nc2ccc(Oc3ccccc3)cc2)cc1 | 0.0079 µM |
| NS(=O)(=O)c1ccc(C(=O)NNC(=O)Nc2ccc(Cc3ccccc3)cc2)cc1 | 0.007 µM |
| NS(=O)(=O)c1ccc(C(=O)NNC(=O)NC2c3ccccc3-c3ccccc32)cc1 | 0.013 µM |
| NS(=O)(=O)c1ccc(C(=O)NNC(=O)NS(=O)(=O)c2ccc(Cl)cc2)cc1 | 0.0054 µM |
| NS(=O)(=O)c1ccc(C(=O)NNC(=O)Nc2ccc(Cl)c(Cl)c2)cc1 | 0.0079 µM |
| NS(=O)(=O)c1ccccc1C(=O)NNC(=O)NS(=O)(=O)c1ccccc1 | 0.076 µM |
| Cc1ccccc1S(=O)(=O)NC(=O)NNC(=O)c1ccccc1S(N)(=O)=O | 0.083 µM |
| NS(=O)(=O)c1ccccc1C(=O)NNC(=O)NS(=O)(=O)c1ccc(Cl)cc1 | 0.072 µM |
| NS(=O)(=O)c1ccc(C(=O)NNC(=O)NS(=O)(=O)c2ccc(F)cc2)cc1 | 0.0062 µM |
| NS(=O)(=O)c1ccc(C(=O)NNC(=O)NS(=O)(=O)c2ccccc2)cc1 | 0.035 µM |
| NNC(=O)c1ccccc1S(N)(=O)=O | 0.547 µM |
| NS(=O)(=O)c1ccc(C(=O)NNC(=O)Nc2ccc(-c3ccccc3)cc2)cc1 | 0.0054 µM |
| CC(=O)c1ccc(NC(=O)NNC(=O)c2ccc(S(N)(=O)=O)cc2)cc1 | 0.0083 µM |
| NS(=O)(=O)c1ccc(C(=O)NNC(=O)Nc2ccc(Br)cc2)cc1 | 0.0086 µM |
| NS(=O)(=O)c1ccc(C(=O)O)cc1 [CARZENIDE] | 0.346 µM |
